# What was measured:
# A2A receptor [1] = molecular target: T1, A2A receptor (Homo sapiens, UniProt P29274); test: A2aR antagonism IC50, cAMP TR-FRET (Lance Ultra) in HEK-293 cells, NECA as agonist; type: cell-based; details: A2AR IC50 (nM) (@5 nM NECA), HEK-293 cells expressing A2A receptor; agonist NECA 5 nM (EC90); inhibition of cAMP;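 also: compounds tested from 10 µM down to 0.08 nM in buffer with Rolipram at room temperature, TR-FRET cAMP signal read 1 h after adding Eu-cAMP tracer and ULight anti-cAMP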
# T1 construct: host or cells: HEK-293
# T1 sequence (P29274 whole entry): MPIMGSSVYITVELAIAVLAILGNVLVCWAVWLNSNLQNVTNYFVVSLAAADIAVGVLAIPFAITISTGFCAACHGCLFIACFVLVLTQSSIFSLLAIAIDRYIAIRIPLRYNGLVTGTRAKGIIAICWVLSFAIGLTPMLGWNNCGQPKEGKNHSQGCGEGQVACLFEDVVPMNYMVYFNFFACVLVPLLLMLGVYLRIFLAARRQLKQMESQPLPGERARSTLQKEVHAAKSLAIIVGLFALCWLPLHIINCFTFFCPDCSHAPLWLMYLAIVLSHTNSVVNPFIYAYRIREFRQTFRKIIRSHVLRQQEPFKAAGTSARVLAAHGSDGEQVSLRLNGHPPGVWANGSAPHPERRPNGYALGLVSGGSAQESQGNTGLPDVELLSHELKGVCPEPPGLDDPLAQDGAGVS
# Source text: (§1) Adenosine A2A receptors and Adenosine A2B receptors induce the production of cAMP when activated/stimulated by an agonist like adenosine or 5′-(N-Ethylcarboxamido) adenosine (NECA). A Time-Resolved Fluorescence Energy Transfer (TR-FRET) assay was used to show the inhibition of this cAMP production in HEK cells upon treatment with compounds of the Formula I of the present disclosure.
# (§2) HEK-293 cells expressing A2A receptor (#ES-011-C) or A2B receptor (#ES 013-C) were obtained from PerkinElmer. Cells were maintained in DMEM medium supplemented with 10% FBS and 200 μg/mL of G418 at 37° C. and 5% CO2. The cells were cultured in antibiotic free medium for a period of 16-20 hours prior to the assay. All subsequent steps of the assay are performed at room temperature (22-24° C.). The cells were harvested at about 80% confluency by gentle flushing with PBS, recovered by centrifugation and resuspended in stimulation buffer at the concentration of 5.0×10^6 cells/mL.
# (§3) The assays were conducted in a stimulation buffer containing 1×DMEM, 5 mM HEPES, 0.1% BSA stabilizer and 20-30 μM Rolipram. Serial dilutions of compounds were made in stimulation buffer to achieve a final concentration of high micromolar (10 μM to 0.08 nM) in the reaction volume of 10 μL. The total reaction volume was 10 μL (5 μL of cells, 2.5 μL of antagonist and 2.5 μL of agonist). The stimulation was ended, and the reaction completed by adding 5 μL of 4× Eu-cAMP tracer working solution and 5 μL of 4× ULight-anti-cAMP working solution. The TR-FRET signal was measured after 1-hour incubation using a Tecan M1000 reader.
# A2A receptor [2] = molecular target: T1, A2A receptor; test: A2aR antagonism IC50, cAMP TR-FRET in HEK-293 cells, high concentration of adenosine (30 μM); type: cell-based; details: HEK-293 cells expressing A2A receptor; agonist adenosine 30 μM; 2% HSA; inhibition of cAMP; read-out: A2AR IC50 (nM) (@30 μM Adenosine);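 also: compounds added 10 min before adenosine, then 30 min stimulation at room temperature in buffer with 100 µM rolipram and 30 µM EHNA, signal read 1 h after detection reagents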
# A2B receptor [3] = molecular target: T2, A2B receptor (Homo sapiens, UniProt P29275); test: A2bR antagonism IC50, cAMP TR-FRET (Lance Ultra) in HEK-293 cells, NECA as agonist; type: cell-based; parameters: host or cells: HEK-293; details: HEK-293 cells expressing A2B receptor; agonist NECA 30 nM (EC90); inhibition of cAMP
# T2 sequence (P29275 1-332): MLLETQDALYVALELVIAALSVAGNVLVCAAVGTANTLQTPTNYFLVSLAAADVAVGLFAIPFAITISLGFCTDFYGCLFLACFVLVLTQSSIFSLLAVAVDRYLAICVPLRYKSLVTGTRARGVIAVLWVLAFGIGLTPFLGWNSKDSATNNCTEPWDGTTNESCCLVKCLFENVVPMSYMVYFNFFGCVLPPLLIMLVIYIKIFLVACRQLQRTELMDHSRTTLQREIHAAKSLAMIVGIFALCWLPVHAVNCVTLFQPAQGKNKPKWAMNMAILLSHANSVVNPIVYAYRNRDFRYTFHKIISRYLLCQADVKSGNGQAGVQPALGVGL
# Source text: as §1, §2, §3
# A2B receptor [4] = molecular target: T2, A2B receptor; test: A2bR antagonism IC50, cAMP TR-FRET in HEK-293 cells, high concentration of adenosine (30 μM); details: A2BR IC50 (nM) (@30 μM Adenosine), HEK-293 cells expressing A2B receptor; agonist adenosine 30 μM; 2% HSA; inhibition of cAMP;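 also: compounds preincubated 10 min with cells, then adenosine stimulation 30 min at room temperature in buffer with Rolipram 100 µM and EHNA 30 µM, TR-FRET read after 1 h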
IC50 (A2A receptor [1]),IC50 (A2A receptor [2]),IC50 (A2B receptor [3]),IC50 (A2B receptor [4]),Structure (SMILES)
1.2 nM,112 nM,53 nM,1060 nM,"Cc1nn2c(N)c(C#N)c(NCCc3ccn(C4CCC4CN)n3)nc2c1Cl (centres unmarked) [Example 95, 7-amino-5-((2-(1-(2-(aminomethyl)cyclobutyl)-1H-pyrazol-3-yl)ethyl)amino)-3-chloro-2-methylpyrazolo[1,5-a]pyrimidine-6-carbonitrile]"
0.3 nM,117 nM,9 nM,829 nM,"CCc1c(C)nn2c(N)c(C#N)c(NCCc3ccn(C4CCCC4CO)n3)nc12 (centres unmarked) [Example 115, 7-amino-3-ethyl-5-((2-(1-(2-(hydroxymethyl)cyclopentyl)-1H-pyrazol-3-yl)ethyl)amino)-2-methylpyrazolo[1,5-a]pyrimidine-6-carbonitrile]"

# — US12577247B2 (BUGWORKS RESEARCH, INC., priority 2021, dated 2026)
